Assay results from patent US7560473B2 (Institute of Pharmacology and Toxicology Academy of …, priority 2001, dated 2009).
Marks after values point to notes of the source that are not given here.

What was measured:
[1] = biological target: T1, ATP-sensitive potassium channels in vascular smooth muscles (Rattus norvegicus, UniProt Q63563); assay: Association kinetics of [^3H]P1075 binding in aortic rings; parameters: species or system Wistar rat; details: 37° C.; drug M: Compound 1 10^−4, Glibencamide 10^−5, ATP 10^−2, ADP 10^−3, UDP 5 × 10^−5, GTP 10^−3, Ade 10^−3; control 4.36 ± 0.45; means ± SD, n = 4~10
T1 construct: The aorta was cut into about 3-5 mm arterial rings and the vascular endothelium was scraped off; from tissue; host or cells: endothelium-removed aortic rings of male Wistar rats
Text: Biological activity experiment 4. Allosteric regulation of novel compounds on ATP-sensitive potassium channels in vascular smooth muscles.
To study the allosteric regulation of compound 1 on ATP-sensitive potassium channels in vascular smooth muscles, the radio-labled-ligand was used in the biological activity experiment 4.
1. The allosteric regulation of compound 1 on the binding sites for the selective KATP blocker glibenclamide in vascular smooth muscles was studied as follows: After decapitated, the male Wistar rat (340±20 g) was immediately incised open the thoracic cavity. The aorta was dissected and immersed in the 4° C. buffer containing 10 mM HEPES to wash off the blood, then carefully extirpated the fat, peripheral connective tissues and thrombus. The aorta was cut into about 3-5 mm arterial rings and the vascular endothelium was scraped off with wet tampon. The arterial rings were blotted, weighted and transferred into the tubes containing proper amount of ice colded physiological saline buffer. In the association kinetics experiment, the arterial circles in the tubes were incubated with, compound 1(10^−4M), pinacidil(10^−4M), ATP(10^−2M), ADP(10^−3M), Ade(10^−3M), […] and equal volume of buffer respectively for 10 min in 25° C. water bath, and then added [^3H]-glibenclamide(3 nM). At 5,10,15,20,30,60,90 and 120 min after incubation, 9 mL ice colded Tris buffer (50 mM) was added to terminate the reaction. After washing off the free and bound [^3H]-glibenclamide, the aorta was blotted, transferred to a scintillator, added 50 uL 30% H2O2 and reacted for 2 h at 80° C. After cooling, 2.5 mL ethyl glycol and 5 mL 1% B-BPD xylene were added in sequence, kept stationary for 8 h and measured under a scintillometer for cpm value. The resulting data were fit into a regression line with In[BEQ/(BEQ-Bt)]vs.t and the parameters for association kinetics were obtained. In the disassociation kinetics experiments, the aorta treated as described above and [^3H]-glibenclamide were incubated for 60 min at 25° C., and then 30 uM glibenclamide was added. 0,5,15,30,60,90 and 120 min later, the cpm values for the complex of [^3H]-glibenclamide and KATP were measured. The resulting data were fit into a regression line with In(B/BEQ)]vs.t and the parameters for disassociation kinetics were obtained. 2. The allosteric regulation of compound 1 on the binding sites for the selective KATP activator P1075 in vascular smooth muscles was studied with the method as described above, but some conditions should be changed as follows: the incubation temperature was 37° C. instead of 25° C.;P1075 was used instead of glibenclamide; In the association kinetics experiments, the time points for sampling were 5,10,15,20,30,45,60 and 90 min, while in the disassociation kinetics experiments, that were 1,3,5,10,20,30,45 and 60 min. Biological activity experiment 5. The effects of compound 1 on the specific binding of high selective activator [^3H]P1075 with ATP-sensitive potassium channels in vascular smooth muscles.

SHRsp = assay: Prophylaxis and treatment of SHRsp cerebral apoplexy; format: in vivo, rats; details: 40 mg · kg^−1d^−1 fed
Experimental: Biological activity experiment 8 the prophylaxis and treatment of cerebral apoplexy with compound 1 of formula Ia
The methods of biological activity experiments were carried out as follows: Desired concentration of compound 1 was prepared with distilled water, while desired concentration of nimodipine was prepared with market available Jinglongyu^T oil. 30 male and 30 female SHRsp (10 weeks old, 120-180 g) were purchased from the vascular disease research center of Academy of Military Medical Science. All SHRsp were divided randomly into five groups based on blood pressure, body weight and sex: control group (fed with equal amount of Jinglongyu^T oil), […], […], […], and 4.0 mg.kg^−1d^−1 nimodipine treated group. Each group contained 12 animals and 4-5 animals were fed in a cage. The feedstaff (containing 23-24% protein) was purchased from experimental animal center of Academy of Military Medical Science. The animals were fed with tap water containing 1% NaCl to accelerate the onset of cerebral apoplexy. 12 normal WKY rats (with the same age and sex with the above) were selected as control, and fed with tap water and the same feedstuff. When reached 11 weeks old, the animals were fed with drugs for experiments.

[2] = biological target: T1, ATP-sensitive potassium channels in vascular smooth muscles; assay: Inhibition of specific binding of [^3H]P1075 in endothelium-removed rat aorta; parameters: species or system Wistar rat; details: [^3H] P1075 5 nmol L^−1, 90 minutes at 37° C., endothelium-removed rat aorta
[3] = system: rats anesthetized with pentobarbital sodium; assay: Effects on blood pressure, heart rate, cardiac contraction and dilation in rats anesthetized with pentobarbital sodium; format: in vivo, Wistar rats; parameters: unit not given here; details: change after injection through femoral vein, '+' = increase, all others = decrease; for MBP: mean blood pressure: n = 3~5, doses mg/kg: 2, 8, 12: 10, 3-7, 9-11, 40-44: 5; for DBP: diastolic blood pressure / HR: heart rate / LVSP: left ventricular systolic pressure / SBP: systolic blood pressure / Vpm: the physiological velocity of contractile element shorting / −dp/dtmax: the maximal rate of the decrease of left ventricular pressure: mean, n = 3~5, doses mg/kg: 2, 8, 12: 10, 3-7, 9-11, 40-44: 5
Experimental: Biological activity experiment 1. The effects of 16 compounds represented by formula I on blood pressure, heart rate, cardiac contraction and dilation in rats anesthetized with pentobarbital sodium.
The methods of biological activity experiment 1 were as follows: Male Wistar rats, weighing 280±30 g were purchased from the experimental animal center of Academy of Military Medical Sciences. Rats were anesthetized with pentobarbital sodium (45 mg/kg) by peritoneal injection. A PE50 polyethylene catheter was inserted into the left ventricle through right carotid artery for cardiac function measurement with a pressure energe exchanger, wherein the signal is put into a SMUP-PC biosignal processing system. Cardiac functional parameters such as HR, LVSP, +dp/dtmax, −dp/dtmax and Vpm were recorded. Another two PE50 polyethylene catheters were inserted into the right femoral artery and vein respectively for blood pressure measurement wherein the artery cathether was linked to a four-channel physiology recorder (RM-6000) through a MPU-0.5A Type pressure energe exchanger, which recorded SBP, DBP and MBP, while the vein catheter was used for compound administration. The methods were described by Liu Wei et al: Liu Wei, Wang Hai, Xiao Wen-Bin. […] Bull Acad Mil Med Sci 1996;20(4):245˜248.

[4] = system: outward potassium currents of rat tail arterial SMCs; assay: Whole cell recording of outward potassium currents in rat tail arterial SMCs; format: cell-based, Wistar rats; details: for Currents, + Compound: outward potassium current amplitude after compound 100 μmol L^−1 in the bath; for Currents, + Compound / Currents, Control (before compound application): X ± SD n = 5; for Currents, Control (before compound application): outward potassium current amplitude before compound application, same cells
Text: Biological activity experiments 6. The effects of novel compounds on potassium currents in isolated arterial vascular smooth muscle cells (SMCs).
The outward currents were, elicited in rat tail arterial SMCs by superfusing extracellular solution under whole cell recording configuration that the depolarizing pulse were applied from −30 mV to +100 mV with the holding potential of −40 mV in 100 ms, 10 mV clamp steps, a frequency of 5 KHz. The compounds were applied in the bath at the concentrations of 100 μmol L^−1. The amplitude of the outward potassium currents was recorded before and after compound application Values were expressed as means±SD. Statistical significance between two groups was evaluated by student's t-test for paired data * P<0.05 **P<0.01 vs control.
1. Preparation of single smooth muscle cells from rat tail arteries: Male Wistar rats (200-250 g) were killed by exsanguination. The tail artery was dissected out and transferred into cold physiological salt solution (PSS) of the following composition (in mM): NaCl 118.3, KCl 4.7, KH2PO4 1.2, MgSO4 1.2, NaHCO3 25.0, CaCl2 2.5, EDTA 0.026 and Glucose 5.0 pH7.4. With the use of a dissecting microscope, the connective tissues were removed and the artery was cut open longitudinally. Endothelium was removed carefully with a cotton swab then the artery was cut into segments with 1 mm long and placed in 4° C. the extracellular solution containing (in mM) NaCl 130, KCl 5, MgCl2 1.2, HEPES 10, Glucose 10, pH7.2 for 20 min. After this incubation, the medium was changed to enzyme solution which was composed of collagenase I (1 mg ml^−1), papain (5 mg ml^−) and bovine serum albumin (2 mg ml^−1). The tissues, were incubated in this solution for 40 min, and then rinsed three times triturated using a fire-polished Pasteur pipette until the medium turned cloudily. The cell suspension was stored in the refrigerator at 4° C.
3. Whole cell recordings: A bath dish with the smooth muscle cells (SMCs) attached and superfused with the extracellular solution at a flow rate of 2 ml min^−1 was mounted onto the stage of an inverted-phase contrast microscope. The microelectrodes having a resistance of (5-8 MΩ) were made from boroscilicate thin-wall glass capillaries, using an automatic multiple-stage, electronic puller (PP830 Japan) and then heat-polished. After establishing a high resistance seal, the patch membrane was disrupted by negative pressure. A commercial patch clamp amplifier (Axon 200B) was used to generate and apply voltages and sample current signals from the cell.

T1 sequence (Q63563 1-1545 isoform Q63563-2): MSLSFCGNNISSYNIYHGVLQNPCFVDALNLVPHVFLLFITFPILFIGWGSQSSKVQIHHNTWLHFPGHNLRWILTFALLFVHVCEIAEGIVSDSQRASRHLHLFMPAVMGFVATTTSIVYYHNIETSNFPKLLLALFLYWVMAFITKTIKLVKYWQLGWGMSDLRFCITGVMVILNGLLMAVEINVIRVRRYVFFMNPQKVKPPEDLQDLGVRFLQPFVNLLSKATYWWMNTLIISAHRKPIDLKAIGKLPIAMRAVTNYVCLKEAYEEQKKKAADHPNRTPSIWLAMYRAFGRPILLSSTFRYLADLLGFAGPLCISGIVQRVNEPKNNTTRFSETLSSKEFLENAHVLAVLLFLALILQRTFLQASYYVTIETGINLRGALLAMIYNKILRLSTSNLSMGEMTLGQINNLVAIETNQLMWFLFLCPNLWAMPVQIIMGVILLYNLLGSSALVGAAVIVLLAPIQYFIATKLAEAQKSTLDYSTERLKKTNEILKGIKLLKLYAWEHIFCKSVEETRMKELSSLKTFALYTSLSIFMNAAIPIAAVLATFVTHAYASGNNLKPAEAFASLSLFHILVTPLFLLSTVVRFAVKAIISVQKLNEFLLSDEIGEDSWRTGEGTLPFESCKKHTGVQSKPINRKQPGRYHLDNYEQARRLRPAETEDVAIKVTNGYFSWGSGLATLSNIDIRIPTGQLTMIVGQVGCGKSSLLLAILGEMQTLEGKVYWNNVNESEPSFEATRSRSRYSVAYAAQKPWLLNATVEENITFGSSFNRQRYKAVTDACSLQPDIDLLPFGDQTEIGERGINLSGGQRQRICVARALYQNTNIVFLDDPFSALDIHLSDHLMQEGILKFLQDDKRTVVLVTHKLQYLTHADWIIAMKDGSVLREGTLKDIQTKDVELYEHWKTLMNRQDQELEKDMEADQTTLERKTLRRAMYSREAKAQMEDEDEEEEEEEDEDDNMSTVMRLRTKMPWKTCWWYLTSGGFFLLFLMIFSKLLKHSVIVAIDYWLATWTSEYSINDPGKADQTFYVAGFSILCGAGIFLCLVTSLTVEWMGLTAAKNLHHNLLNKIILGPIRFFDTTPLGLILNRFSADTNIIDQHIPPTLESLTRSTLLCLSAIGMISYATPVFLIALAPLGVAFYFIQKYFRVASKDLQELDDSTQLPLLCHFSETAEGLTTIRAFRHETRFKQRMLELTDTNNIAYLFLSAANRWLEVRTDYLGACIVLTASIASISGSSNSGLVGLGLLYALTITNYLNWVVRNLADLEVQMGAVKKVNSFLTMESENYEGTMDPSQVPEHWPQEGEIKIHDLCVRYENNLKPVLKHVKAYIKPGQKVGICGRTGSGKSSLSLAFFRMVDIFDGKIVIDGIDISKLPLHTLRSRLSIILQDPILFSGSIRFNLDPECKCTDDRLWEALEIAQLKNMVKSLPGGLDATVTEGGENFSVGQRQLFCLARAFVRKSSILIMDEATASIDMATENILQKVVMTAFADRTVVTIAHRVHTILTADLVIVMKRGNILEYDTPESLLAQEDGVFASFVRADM
T1 sequence (Q63664 whole entry partner): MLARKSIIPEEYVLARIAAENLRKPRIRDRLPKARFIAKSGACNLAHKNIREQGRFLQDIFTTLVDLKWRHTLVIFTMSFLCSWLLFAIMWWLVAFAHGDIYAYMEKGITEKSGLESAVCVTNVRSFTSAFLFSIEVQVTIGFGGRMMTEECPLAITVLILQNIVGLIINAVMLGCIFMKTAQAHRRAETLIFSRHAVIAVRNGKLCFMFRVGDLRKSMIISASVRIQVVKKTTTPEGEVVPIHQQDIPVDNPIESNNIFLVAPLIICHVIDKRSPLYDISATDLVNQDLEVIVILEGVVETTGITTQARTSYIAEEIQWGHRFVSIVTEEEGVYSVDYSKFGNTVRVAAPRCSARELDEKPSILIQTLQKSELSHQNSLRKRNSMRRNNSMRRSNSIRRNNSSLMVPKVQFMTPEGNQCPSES

| Structure (SMILES) | MBP: mean blood pressure [3] | DBP: diastolic blood pressure [3] | HR: heart rate [3] | LVSP: left ventricular systolic pressure [3] | SBP: systolic blood pressure [3] | Vpm: the physiological velocity of contractile element shorting [3] | −dp/dtmax: the maximal rate of the decrease of left ventricular pressure [3] | Currents, + Compound [4] | Currents, Control (before compound application) [4] [nA] | other results |
| --- | --- | --- | --- | --- | --- | --- | --- | --- | --- | --- |
| Nc1nc2c(ncn2[C@@H]2O[C@H](COP(=O)(O)OP(=O)(O)OP(=O)(O)O)[C@@H](O)[C@H]2O)c(=O)[nH]1 [GTP] |  |  |  |  |  |  |  |  |  | Association kinetics kobs of [^3H]P1075 binding [1]: 3.86 ± 0.19 ×10^−2 nM^−1 · min^−1 |
| COCCOC(=O)C1=C(C)NC(C)=C(C(=O)OC(C)C)C1c1cccc([N+](=O)[O-])c1 (centres unmarked) [Nimodipine, nimodipine, reference compound] |  |  |  |  |  |  |  |  |  | Survival time (SHRsp; control 4.6 ± 3.8, means ± SD): 11.1 ± 2.7 days; Period needed for onset of cerebral apoplexy (SHRsp; control 48.3 ± 7.4, means ± SD): 66.0 ± 14.8 days; Death rate of cerebral apoplexy (SHRsp; n 12, control 50.0): 9.1* %; Rate of cerebral apoplexy (SHRsp; n 12, control 83.3): 36.4* % |
| CCC(C)(C)N=C(NC#N)Nc1cccnc1 [P1075, reference compound] |  |  |  |  |  |  |  |  |  | IC50 [2]: 9.1 ± 1.3 nM |
| CC(C)C(C)(C)N [compound 2] | 24 | 15 | 20 | 116 | 38 | 1.16 | 54 | 1.01 ± 0.57 nA | 0.91 ± 0.49 |  |
| CNC(C)(C)C(C)C [compound 3] | 22 | 19 | 43 | 111 | 29 | 0.49 | 157 | 0.60 ± 0.34 nA | 0.56 ± 0.31 |  |
| CCNC(C)(C)C(C)C [compound 4] | 25 | 23 | 44 | 146 | 31 | 0.45 | 177 | 0.69 ± 0.14** nA | 0.61 ± 0.12 |  |
| CCCCNC(C)(C)C(C)C [compound 6, N-butyl-2,3-dimehyl-2-butylamine] | 49 | 43 | 111 | 263 | 61 | 0.98 | 276 | 1.18 ± 0.54* nA | 0.49 ± 0.23 |  |
| CCC(C)NC(C)(C)C(C)C (centres unmarked) [compound 13, N-(1-methylpropyl)-2,3-dimethyl-2-butylamine] |  |  |  |  |  |  |  | 0.85 ± 0.31** nA | 0.55 ± 0.34 |  |
| CC(C)C(C)(C)NCC1CC1 [compound 15, N-cyclopropylmethyl-2,3-dimethyl-2-butylamine] |  |  |  |  |  |  |  | 1.30 ± 0.45* nA | 0.83 ± 0.24 |  |
| CC(C)C(C)(C)NCc1ccccc1 [compound 24] |  |  |  |  |  |  |  | 0.63 ± 0.19 nA | 0.65 ± 0.19 |  |
| C=CCNC(C)(C)C(C)C [compound 25, N-allyl-2,3-dimethyl-2-butylamine] |  |  |  |  |  |  |  | 1.46 ± 0.50** nA | 0.68 ± 0.19 | stimulation of potassium channel activities (in words) ([4]; 100 μmol L^−1, rat tail arterial SMCs): Maximum potency |
| CC(C)C(C)(C)NC(=O)c1cccnc1 [compound 39] |  |  |  |  |  |  |  | 0.51 ± 0.22 nA | 0.46 ± 0.14 |  |
